Results reported in US10040766B2, “Ubiquitination inhibitors” (Rigel Pharmaceuticals, Inc., priority 2014, dated 2018).
Where two headings read alike, the source gives them in different places.

Legend:
[1] = test system: fibrosarcoma HT1080; test: Inhibition of tumor cell growth, HT1080; type: cell-based
[2] = target: Cks1-Skp2 protein-protein interaction (Homo sapiens, UniProt P61024+Q13309); test: Cks1-Skp2 protein-protein interaction ELISA; type: binding
Description: In vitro binding of Skp2 to Cks1 was established in an ELISA assay format, with Cks1 protein immobilized on a 384-well plate and binding of Skp1/Skp2 to Cks1 detected by anti-Skp2 immunoreaction.

[3] = test system: lung tumor cell line A549; test: Inhibition of tumor cell growth, A549; type: cell-based
[4] = Table 3, read-out: IC50 Cks1-Skp2
[5] = sulfonamide analogues, Table 2, read-out: Potency in the Cks1-Skp2 interaction assay
[6] = ELISA, Cks1 immobilized, Skp1/Skp2 binding detected by anti-Skp2, read-out: Cks1-Skp2 (μM), potency in the interaction assay

Cks1-Skp2 protein-protein interaction, sequence (P61024 whole entry): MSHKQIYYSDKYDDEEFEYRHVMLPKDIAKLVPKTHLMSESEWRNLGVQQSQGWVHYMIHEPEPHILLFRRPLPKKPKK
Cks1-Skp2 protein-protein interaction, sequence (Q13309 whole entry): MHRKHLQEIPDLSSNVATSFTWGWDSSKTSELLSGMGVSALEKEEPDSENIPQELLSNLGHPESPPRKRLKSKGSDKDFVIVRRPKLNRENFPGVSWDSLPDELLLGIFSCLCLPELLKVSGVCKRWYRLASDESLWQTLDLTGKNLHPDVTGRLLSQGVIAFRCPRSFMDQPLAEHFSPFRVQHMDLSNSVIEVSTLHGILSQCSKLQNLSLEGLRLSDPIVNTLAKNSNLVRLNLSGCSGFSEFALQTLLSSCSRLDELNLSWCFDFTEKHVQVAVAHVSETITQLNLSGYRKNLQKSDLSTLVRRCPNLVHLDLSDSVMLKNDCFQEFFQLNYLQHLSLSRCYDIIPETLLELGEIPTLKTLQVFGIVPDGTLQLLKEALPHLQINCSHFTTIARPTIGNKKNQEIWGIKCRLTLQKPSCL

IC50 [1]	IC50 [2, 4]	IC50 [2, 5]	IC50 [3]	IC50 [2, 6]	IC50 ([1]; Homo sapiens, HT-1080)	IC50 ([3]; Homo sapiens)	Compound
–	–	8.02 µM	–	–	–	–	COc1ccc(S(=O)(=O)Nc2ccc(-c3ccccc3)c3cccnc23)cc1 [Compound 17, 4-methoxy-N-(5-phenylquinolin-8-yl)benzenesulfonamide]
–	–	6.7 µM	–	–	–	–	O=S(=O)(Nc1ccc(-c2ccccc2)c2cccnc12)c1cccc(C(F)(F)F)c1 [Compound 18, N-(5-phenylquinolin-8-yl)-3-(trifluoromethyl)benzenesulfonamide]
–	–	2.2 µM	–	–	–	–	O=S(=O)(Nc1ccc(-c2ccccc2)c2cccnc12)c1cccnc1 [Compound 19, N-(5-phenylquinolin-8-yl)pyridine-3-sulfonamide]
–	–	7.6 µM	–	–	–	–	CC(=O)Nc1ccc(S(=O)(=O)Nc2ccc(-c3ccccc3)c3cccnc23)cc1 [Compound 20, N-(4-(N-(5-phenylquinolin-8-yl)sulfamoyl)phenyl)acetamide]
–	–	15.1 µM	–	–	–	–	CS(=O)(=O)Nc1ccc(-c2cccnc2)c2cccnc12 [Compound 21, N-(5-(pyridin-3-yl)quinolin-8-yl)methanesulfonamide]
–	–	7.16 µM	–	–	–	–	O=S(=O)(Nc1ccc(-c2cccnc2)c2cccnc12)C1CC1 [Compound 22, N-(5-(pyridin-3-yl)quinolin-8-yl)cyclopropanesulfonamide]
–	0.17 µM	0.17 µM	–	–	400 nM	910 nM	O=S(=O)(Nc1ccc(-c2cccnc2)c2cccnc12)c1cccc(C(F)(F)F)c1 [Compound 24, N-(5-(pyridin-3-yl)quinolin-8-yl)-3-(trifluoromethyl)benzenesulfonamide]
–	1.67 µM	1.67 µM	–	–	1070 nM	5240 nM	O=S(=O)(Nc1ccc(-c2cccnc2)c2cccnc12)c1cccnc1 [Compound 25, N-(5-(pyridin-3-yl)quinolin-8-yl)pyridine-3-sulfonamide]
–	–	14.5 µM	–	–	–	–	CC(=O)Nc1ccc(S(=O)(=O)Nc2ccc(-c3cccnc3)c3cccnc23)cc1 [Compound 26, N-(4-(N-(5-(pyridin-3-yl)quinolin-8-yl)sulfamoyl)phenyl)acetamide]
–	–	10.9 µM	–	–	–	–	O=S(=O)(Nc1ccc(-c2ccncc2)c2cccnc12)C1CC1 [Compound 28, N-(5-(pyridin-4-yl)quinolin-8-yl)cyclopropanesulfonamide]
–	1.21 µM	1.21 µM	–	–	1070 nM	5880 nM	O=S(=O)(Nc1ccc(-c2ccncc2)c2cccnc12)c1cccnc1 [Compound 30, N-(5-(pyridin-4-yl)quinolin-8-yl)pyridine-3-sulfonamide]
–	–	6.55 µM	–	–	–	–	CC(=O)Nc1ccc(S(=O)(=O)Nc2ccc(-c3ccncc3)c3cccnc23)cc1 [Compound 31, N-(4-(N-(5-(pyridin-4-yl)quinolin-8-yl)sulfamoyl)phenyl)acetamide]

More lines, now with the values behind:

Compound	IC50 [1]	IC50 [2, 4]	IC50 [2, 5]	IC50 [3]	IC50 [2, 6]	IC50 ([1]; Homo sapiens, HT-1080)	IC50 ([3]; Homo sapiens)
4-methoxy-N-(5-(pyridin-3-yl)quinolin-8-yl)benzenesulfonamide [Compound 29]	1320 nM	2.45 µM	2.45 µM	3060 nM	–	–	–
4-methoxy-N-(5-(pyridin-4-yl)quinolin-8-yl)benzenesulfonamide [Compound 23]	440 nM	0.58 µM	0.58 µM	1240 nM	–	–	–
Cc1ccc(S(=O)(=O)Nc2ccc(Br)c3cccnc23)cc1 [Compound 1, N-(5-bromoquinolin-8-yl)-4-methylbenzenesulfonamide]	–	–	–	–	0.84 µM	–	–
Cc1ccc(S(=O)(=O)Nc2ccc(-c3ccccc3)c3cccnc23)cc1 [Compound 4, 4-methyl-N-(5-phenylquinolin-8-yl)benzenesulfonamide]	–	0.54 µM	–	–	0.54 µM	1640 nM	2360 nM
Cc1ccc(S(=O)(=O)Nc2ccc(-c3ccco3)c3cccnc23)cc1 [Compound 5, N-(5-(furan-2-yl)quinolin-8-yl)-4-methylbenzenesulfonamide]	–	0.55 µM	–	–	0.55 µM	9780 nM	26000 nM
Cc1ccc(S(=O)(=O)Nc2ccc(-c3cccnc3)c3cccnc23)cc1 [Compound 6, 4-methyl-N-(5-(pyridin-3-yl)quinolin-8-yl)benzenesulfonamide]	–	1.73 µM	–	–	1.73 µM	4220 nM	6020 nM
Cc1ccc(S(=O)(=O)Nc2ccc(-c3ccsc3)c3cccnc23)cc1 [Compound 7, 4-methyl-N-(5-(thiophen-3-yl)quinolin-8-yl)benzenesulfonamide]	–	5.54 µM	–	–	5.54 µM	640 nM	2360 nM
Cc1ccc(S(=O)(=O)Nc2ccc(-c3cc4ccccc4s3)c3cccnc23)cc1 [Compound 8, N-(5-(benzo[b]thiophen-2-yl)quinolin-8-yl)-4-methylbenzenesulfonamide]	–	7.84 µM	–	–	7.84 µM	150 nM	390 nM
Cc1ccc(S(=O)(=O)Nc2cc(Oc3cc(F)cc(F)c3)cc3cccnc23)cc1 [Compound 12, N-(6-(3,5-difluorophenoxy)quinolin-8-yl)-4-methylbenzenesulfonamide]	80 nM	3.57 µM	–	4110 nM	3.57 µM	–	–
COc1ccc(Oc2cc(NS(=O)(=O)c3ccc(C)cc3)c3ncccc3c2)cc1 [Compound 13, N-(6-(4-methoxyphenoxy)quinolin-8-yl)-4-methylbenzenesulfonamide]	740 nM	1.15 µM	–	4090 nM	1.15 µM	–	–
Cc1ccc(S(=O)(=O)Nc2cc(Oc3cccc(C#N)c3)cc3cccnc23)cc1 [Compound 14, N-(6-(3-cyanophenoxy)quinolin-8-yl)-4-methylbenzenesulfonamide]	6830 nM	1.74 µM	–	6480 nM	1.74 µM	–	–
CS(=O)(=O)Nc1ccc(-c2ccccc2)c2cccnc12 [Compound 15, N-(5-phenylquinolin-8-yl)methanesulfonamide]	–	–	2.2 µM	–	–	–	–
O=S(=O)(Nc1ccc(-c2ccccc2)c2cccnc12)C1CC1 [Compound 16, N-(5-phenylquinolin-8-yl)cyclopropanesulfonamide]	–	–	12.1 µM	–	–	–	–
